Data on 27 molecules can be found in patent US9738648B2, “Pyridines, pyrimidines, and pyrazines, as BTK inhibitors and uses thereof” (Merck Patent GmbH, priority 2013, dated 2017).

Assay [1] deals with anti-IgM-induced expression of CD69 in freshly isolated human peripheral blood mononuclear cells (PBMCs). In words: Assay B: inhibition of anti-IgM-induced expression of CD69 on CD19 positive cells (B cells) in human PBMCs. Format: cell-based. Particulars: PBMC, 1 h pre-treatment, overnight anti-human IgM stimulation, CD69 on CD19 positive cells by flow cytometry, read-out: Assay B (mol/L (M)). Here is the method:
Btk is critical for mediating the signalling of B cell antigen receptor (BCR) after anti-IgM stimulation. Based on this principle, a functional cell-based assay was established to determine the potency of compounds at inhibiting anti-IgM-induced expression of CD69, a downstream BCR signalling event, in freshly isolated human peripheral blood mononuclear cells (PBMCs). In the assay, a 90 μl PBMC suspension containing 2.5×10^5 cells was pre-treated with 10 μl of test compound at various concentrations for an hour, and then incubated overnight (approximately 16-18 hours) with 5 μl 420 μg/ml affiniPure F(ab′)2 fragment goat anti-human IgM Fc fragment per well (Dianova, Cat. No.: 109-006-129). After the incubation, the cells were washed and immunostained with an APC labelled mouse anti-human CD69 (BD Biosciences; clone: FN50), a PerCP-Cy5.5 labelled mouse anti-human CD19 (BD Biosciences; clone: SJ25C1) and a FITC-labelled mouse anti-human CD3 (BD Biosciences; clone: HIT3a), and fixed for flow cytometric analysis of CD69 expression on CD19 positive cells (B cells). The percentage of CD69 expressing CD19 positive cells was plotted against the concentrations of test compounds to obtain a concentration response curve, and calculate an IC50 value as a measure of the potency of test compounds in the assay.
(In flow cytometry, cells or beads pass a laser one at a time.)

The target of another assay is T1, full-length human BTK (Homo sapiens, UniProt Q06187).
T1 construct: 2.5× stocks of full-length human BTK (08-080) from CarnaBio USA, Inc; purchased CarnaBio USA, Inc., Natick, Mass; 08-080
In words: BTK IC50 Enzyme Assay (Assay A), microfluidic off-chip mobility shift kinase assay. Format: biochemical. Particulars: kinKDR peptide substrate, 90 min at 27° C. Here is the method:
BTK IC50 Enzyme Assay (Assay A)
The following describes a microfluidic, off-chip mobility shift kinase assay used to measure inherent potency of compounds against BTK enzyme.
2.5× stocks of full-length human BTK (08-080) from CarnaBio USA, Inc., Natick, Mass., 1.6×ATP and appropriate kinKDR peptide substrate (FITC-AHA-EEPLYWSFPAKKK10 NH2) were prepared in kinase reaction buffer consisting of 25 mM MgCl2, 0.015% Brij-35 (30%), 100 mM Hepes, pH 7.5, and 10 mM DTT.
5 uL of enzyme buffer and 7.5 uL of ATP/kinKDR peptide substrate mix were added to Matrix (#115304) 384-well, sterile, polypropylene plates (Thermo Fisher Scientific, 15 Hudson, N.H.) with 125 nL of serially diluted compounds prepared in 100% DMSO, and incubated for 90 min. at 27° C. Following the incubation period, reactions were stopped by adding 60 uL stop buffer consisting of 100 mM Hepes, pH 7.5, 0.015% Brij-35 (30%), 0.277% Coating Reagent #3 (Caliper Life Sciences, Mountain View, Calif.), 5% DMSO. Stopped reactions were monitored at −2 PSI, −3000 V/−700 V in a LabChip 3000 plate 20 reader from Caliper Life Sciences, a PerkinElmer Company (Hopkinton, Mass.), and the activity was measured by off-chip mobility shift assay measuring the charge/mass difference between substrate and product resulting from peptide phosphorilation. IC50 and efficacy were determined by plotting log [Inhibitor] vs. % Activity in GeneData Screener (Basel, Switzerland).

T1 sequence (Q06187 whole entry): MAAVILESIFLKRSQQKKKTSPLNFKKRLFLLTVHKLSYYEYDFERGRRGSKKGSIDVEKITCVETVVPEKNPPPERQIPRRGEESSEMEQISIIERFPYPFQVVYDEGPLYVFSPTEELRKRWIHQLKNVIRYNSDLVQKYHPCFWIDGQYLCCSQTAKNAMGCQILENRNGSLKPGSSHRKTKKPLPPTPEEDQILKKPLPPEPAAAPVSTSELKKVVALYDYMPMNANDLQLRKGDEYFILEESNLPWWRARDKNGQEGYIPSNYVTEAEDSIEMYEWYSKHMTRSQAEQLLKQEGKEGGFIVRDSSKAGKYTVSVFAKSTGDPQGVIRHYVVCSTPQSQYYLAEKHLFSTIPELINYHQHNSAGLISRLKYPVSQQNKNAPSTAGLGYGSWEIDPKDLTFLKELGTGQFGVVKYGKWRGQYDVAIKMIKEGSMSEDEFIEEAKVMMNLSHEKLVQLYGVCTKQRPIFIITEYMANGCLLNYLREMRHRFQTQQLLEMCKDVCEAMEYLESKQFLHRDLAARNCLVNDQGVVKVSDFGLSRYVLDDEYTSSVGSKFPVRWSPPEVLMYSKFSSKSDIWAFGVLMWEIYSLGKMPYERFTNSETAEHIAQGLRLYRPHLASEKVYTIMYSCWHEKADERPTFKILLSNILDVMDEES

For the molecule `C=CC(=O)N1CC(n2ccc3ncnc(Oc4ccc(Oc5ccccc5)cc4)c32)C1` [Compound 3, 1-(3-(4-(4-phenoxyphenoxy)-5H-pyrrolo[3,2-d]pyrimidin-5-yl)azetidin-1-yl)prop-2-en-1-one], the IC50 in assay [1] was less than 1e-07 M; on full-length human BTK it was less than 100 nM.
For `C=CC(=O)N[C@H]1C[C@@H](n2ccc3ncnc(Oc4ccc(Oc5ccccc5)cc4)c32)C1` [Compound 10, N-(cis-3-(4-(4-phenoxyphenoxy)-5H-pyrrolo[3,2-d]pyrimidin-5-yl)cyclobutyl)acrylamide] the same measures were 1e-07 to 1e-06 M and less than 100 nM.
As to `CN(C)C/C=C/C(=O)N1CC(n2ccc3ncc(-c4ccc(Oc5ccccc5)cc4)cc32)C1` [Compound 13, (E)-4-(dimethylamino)-1-(3-(6-(4-phenoxyphenyl)-1H-pyrrolo[3,2-b]pyridin-1-yl)azetidin-1-yl)but-2-en-1-one], the figures for the IC50 (in assay [1]; at full-length human BTK) were 1e-07 to 1e-06 M and less than 100 nM, respectively.
Turning to `CC(C)=CC(=O)N1CC(n2ccc3ncnc(Oc4ccc(Oc5ccccc5)cc4)c32)C1` [Compound 49, 3-methyl-1-(3-(4-(4-phenoxyphenoxy)-5H-pyrrolo[3,2-d]pyrimidin-5-yl)azetidin-1-yl)but-2-en-1-one], the IC50 at full-length human BTK is greater than 5000 nM.
For the molecule `C=CC(=O)N1CCC(n2ccc3ncnc(-c4cccc(Oc5ccccc5)c4)c32)CC1` [Compound 50, 1-(4-(4-(3-phenoxyphenyl)-5H-pyrrolo[3,2-d]pyrimidin-5-yl)piperidin-1-yl)prop-2-en-1-one], on full-length human BTK, the IC50 was greater than 5000 nM.
On to `C=C(C)C(=O)N1CC(n2ccc3ncnc(Oc4ccc(Oc5ccccc5)cc4)c32)C1` [Compound 51, 2-methyl-1-(3-(4-(4-phenoxyphenoxy)-5H-pyrrolo[3,2-d]pyrimidin-5-yl)azetidin-1-yl)prop-2-en-1-one], for which, at full-length human BTK, the IC50 is greater than 5000 nM.
Turning to `C=CC(=O)N1CC(n2ccc3ncc(-c4cnn(Cc5ccccc5)c4)nc32)C1` [Compound 52, 1-(3-(3-(1-benzyl-1H-pyrazol-4-yl)-5H-pyrrolo[2,3-b]pyrazin-5-yl)azetidin-1-yl)prop-2-en-1-one], on full-length human BTK, the IC50 lay in the range of 100 to 1000 nM.
Regarding `CCC/C=C(\C#N)C(=O)N1CCC(n2ccc3ncnc(Oc4ccc(Oc5ccccc5)cc4)c32)CC1` [Compound 55, (E)-2-(4-(4-(4-phenoxyphenoxy)-5H-pyrrolo[3,2-d]pyrimidin-5-yl)piperidine-1-carbonyl)hex-2-enenitrile], the IC50 on full-length human BTK lay within 1000 to 5000 nM.
As to `N#CN1CCC(n2ccc3ncnc(Oc4ccc(Oc5ccccc5)cc4)c32)CC1` [Compound 56, 4-(4-(4-phenoxyphenoxy)-5H-pyrrolo[3,2-d]pyrimidin-5-yl)piperidine-1-carbonitrile], the IC50 on full-length human BTK lay in the range of 1000 to 5000 nM.
In the case of `N#CNC(=O)N1CCC(n2ccc3ncnc(Oc4ccc(Oc5ccccc5)cc4)c32)CC1` [Compound 57, N-cyano-4-(4-(4-phenoxyphenoxy)-5H-pyrrolo[3,2-d]pyrimidin-5-yl)piperidine-1-carboxamide], the IC50 at full-length human BTK lay within 100 to 1000 nM.
For `N#CN1CCC(Cn2ccc3ncnc(Oc4ccc(Oc5ccccc5)cc4)c32)C1` (stereo not drawn) [Compound 58, 3-[[4-(4-phenoxyphenoxy)-5H-pyrrolo[3,2-d]pyrimidin-5-yl]methyl]pyrrolidine-1-carbonitrile], the IC50 on full-length human BTK is 1000 to 5000 nM.
Consider `N#CN1CCC(Cn2ccc3ncnc(Oc4ccc(Oc5ccccc5)cc4)c32)CC1` [Compound 59, 4-[[4-(4-phenoxyphenoxy)-5H-pyrrolo[3,2-d]pyrimidin-5-yl]methyl]piperidine-1-carbonitrile], for which the IC50 at full-length human BTK was greater than 5000 nM.
Consider `N#CN1CCCC1Cn1ccc2ncnc(Oc3ccc(Oc4ccccc4)cc3)c21` (stereo not drawn) [Compound 61, 2-[[4-(4-phenoxyphenoxy)-5H-pyrrolo[3,2-d]pyrimidin-5-yl]methyl]pyrrolidine-1-carbonitrile], for which the IC50 at full-length human BTK was in the range of 1000 to 5000 nM.
Same read-out and setting: the value for `N#CN1CCCCC1Cn1ccc2ncnc(Oc3ccc(Oc4ccccc4)cc3)c21` (stereo not drawn) [Compound 62, 2-[[4-(4-phenoxyphenoxy)-5H-pyrrolo[3,2-d]pyrimidin-5-yl]methyl]piperidine-1-carbonitrile] was 1000 to 5000 nM.
Consider `N#CN1CCCC(Cn2ccc3ncnc(Oc4ccc(Oc5ccccc5)cc4)c32)C1` (stereo not drawn) [Compound 63, 3-[[4-(4-phenoxyphenoxy)-5H-pyrrolo[3,2-d]pyrimidin-5-yl]methyl]piperidine-1-carbonitrile], for which the IC50 at full-length human BTK was greater than 5000 nM.
With `N#CN1CCCC(n2ccc3ncnc(Oc4ccc(Oc5ccccc5)cc4)c32)C1` (stereo not drawn) [Compound 64, 3-[4-(4-phenoxyphenoxy)-5H-pyrrolo[3,2-d]pyrimidin-5-yl]piperidine-1-carbonitrile], the IC50 at full-length human BTK fell in the range of 100 to 1000 nM.
As to `N#CN1CCC1Cn1ccc2ncnc(Oc3ccc(Oc4ccccc4)cc3)c21` (stereo not drawn) [Compound 65, 2-[[4-(4-phenoxyphenoxy)-5H-pyrrolo[3,2-d]pyrimidin-5-yl]methyl]azetidine-1-carbonitrile], the IC50 on full-length human BTK fell in the range of 1000 to 5000 nM.
In the case of `N#CN1CC(Cn2ccc3ncnc(Oc4ccc(Oc5ccccc5)cc4)c32)C1` [Compound 66, 3-[[4-(4-phenoxyphenoxy)-5H-pyrrolo[3,2-d]pyrimidin-5-yl]methyl]azetidine-1-carbonitrile], on full-length human BTK, the IC50 fell in the range of 1000 to 5000 nM.
`CN(C#N)[C@H]1C[C@H](n2ccc3ncnc(Oc4ccc(Oc5ccccc5)cc4)c32)C1` [Compound 67, (1R,3R)—N-cyano-N-methyl-3-[4-(4-phenoxyphenoxy)-5H-pyrrolo[3,2-d]pyrimidin-5-yl]cyclobutan-1-amine]: on full-length human BTK, the IC50 lay in the range of 100 to 1000 nM.
The same measure, in the same setting: the figure for `N#CN1CC(n2ccc3ncnc(Oc4ccc(Oc5ccccc5)cc4)c32)C1` [Compound 68, 3-[4-(4-phenoxyphenoxy)-5H-pyrrolo[3,2-d]pyrimidin-5-yl]azetidine-1-carbonitrile] is 1000 to 5000 nM; for `N#CN1CC2(CC(n3ccc4ncnc(Oc5ccc(Oc6ccccc6)cc5)c43)C2)C1` [Compound 69, 6-[4-(4-phenoxyphenoxy)-5H-pyrrolo[3,2-d]pyrimidin-5-yl]-2-azaspiro[3.3]heptane-2-carbonitrile] it is 1000 to 5000 nM.
In the case of `CN(C#N)[C@H]1CC[C@H](n2ccc3ncnc(Oc4ccc(Oc5ccccc5)cc4)c32)CC1` [Compound 70, (1R,4R)—N-cyano-N-methyl-4-[4-(4-phenoxyphenoxy)-5H-pyrrolo[3,2-d]pyrimidin-5-yl]cyclohexan-1-amine], the IC50 on full-length human BTK was in the range of 100 to 1000 nM.
Take `N#CN1CC[C@@H](n2ccc3ncnc(Oc4ccc(Oc5ccccc5)cc4)c32)C1` [Compound 71, (3R)-3-[4-(4-phenoxyphenoxy)-5H-pyrrolo[3,2-d]pyrimidin-5-yl]pyrrolidine-1-carbonitrile]: the IC50 on full-length human BTK is greater than 5000 nM.
As to `NCCOCCOCCOCCOCCC(=O)NCCN1CCN(C/C=C/C(=O)N2CCC(n3ccc4ncnc(Oc5ccc(Oc6ccccc6)cc5)c43)CC2)CC1` [Compound 73, (E)-1-amino-N-(2-(4-(4-oxo-4-(4-(4-(4-phenoxyphenoxy)-5H-pyrrolo[3,2-d]pyrimidin-5-yl)piperidin-1-yl)but-2-en-1-yl)piperazin-1-yl)ethyl)-3,6,9,12-tetraoxapentadecan-15-amide], on full-length human BTK, the IC50 was less than 100 nM.
For `CC1=CC(C)=[N+]2C1=C(c1ccc(NC(=S)NCCOCCOCCOCCOCCC(=O)NCCN3CCN(C/C=C/C(=O)N4CCC(n5ccc6ncnc(Oc7ccc(Oc8ccccc8)cc7)c65)CC4)CC3)cc1)c1c(C)cc(C)n1[B-]2(F)F` [Compound 74, (E)-1-((4-(5,5-difluoro-1,3,7,9-tetramethyl-5H-414,514-dipyrrolo[1,2-c:2′,1′-f][1,3,2]diazaborinin-10-yl)phenyl)amino)-N-(2-(4-(4-oxo-4-(4-(4-(4-phenoxyphenoxy)-5H-pyrrolo[3,2-d]pyrimidin-5-yl)piperidin-1-yl)but-2-en-1-yl)piperazin-1-yl)ethyl)-1-thioxo-5,8,11,14-tetraoxa-2-azaheptadecan-17-amide], the IC50 on full-length human BTK was 100 to 1000 nM.
As for `N#CN1CC[C@@H](n2ccc3ncnc(Oc4ccc(Oc5ccc(F)cc5F)cc4)c32)C1` [Compound 75], the IC50 at full-length human BTK was greater than 5000 nM.
As to `N#CN1CC[C@H](n2ccc3ncnc(Oc4ccc(Oc5ccc(F)cc5F)cc4)c32)C1` [Compound 76], on full-length human BTK, the IC50 lay in the range of 100 to 1000 nM.
